Experimental data as given in patent US4096259A, “Non-amphetaminic psychostimulating compositions of 1,4-disubstituted piperazines” (priority 1975, dated 1978).

How the values were obtained:
[1] = tested on: exploration response in mice; assay: Psychostimulating activity: increase of exploration response in mice (actimetry); assay type: in vivo; details: Mus musculus, po, per os, dose which increases exploration response by 50%
Text: The psychostimulating activity was studied by determining the dose which increases the exploration response in mice (actimetry) by 50% (ED50),according to the method described by BOISSIER J.R. and SIMON P. (Arc. Int. Pharmacolyn, 1965, 212-221158).

[2] = Chronic toxicity in rats, oral; assay type: in vivo; details: per os, 40 mg/kg, 6 out of 7 days, six months
[3] = tested on: mortality with pentetrazole in mice; assay: Potentiation of mortality with pentetrazole in mice; assay type: in vivo; details: per os
[4] = tested on: rat isolated duodenum; assay: In vitro papaverine spasmolytic activity: duodenum contractions in rats induced by barium chloride
Description: The papaverine spasmolytic activity was measured "in vitro" by the concentration ratio: active principle/papaverine hydrochloride concentration, which reduces duodenum contractions in rats, induced by barium chloride, by 50% according to the method of POMARET J. C., SERGANT - ODY M., POURRIAS B. and HUGUET G. (Therapie, 1969, 24, 109-143).
(§1) Table V below gives, by way of example, the complementary pharmacological activities such as antiserotonin, adrenolytic and atropinic activities for derivatives N° 21, 23 and 33, the spasmolytic activity of which is the greatest for the rat isolated duodenum.

[5] = tested on: female rat uterus in oestrus; assay: In vitro anti-serotonin activity on the female rat uterus in oestrus; details: Methysergide = 1
Text: as §1

[6] = Acute toxicity (LD50) in mice, per os; details: mouse, in vivo, po
Text: Acute toxicity was studied by determining the LD50 in mice, the derivatives being administered per os.

[7] = Group toxicity (LD50 grouped mice / LD50 isolated mice); details: mouse, in vivo
[8] = tested on: ptose with reserpine in mice; assay: Ptose antagonism with reserpine in mice; assay type: in vivo; details: Mus musculus, po, per os
[9] = tested on: Guinea-pig seminal vesicle; assay: In vitro adrenolytic action on the Guinea-pig seminal vesicle; details: Yohimbine hydrochloride = 1
Text: as §1

[10] = tested on: arteritis of the lower limbs, cerebral vascular sclerosis, sequelae of hemiplegia; assay: Clinical test in arteritis of the lower limbs, cerebral vascular sclerosis, sequelae of hemiplegia; assay type: in vivo, adults; details: 15 mg/day oral, one month
Description: By way of example, clinical tests were carried out on derivatives N° 5 and 21.

[11] = tested on: Guinea-pig ileum; assay: In vitro atropinic action on the Guinea-pig ileum; details: Atropine sulfate = 1
Text: as §1

[12] = tested on: rabbit isolated ear; assay: In vitro spasmolytic action on the rabbit isolated ear; details: papaverine hydrochloride = 1
Text: as §1

[13] = tested on: dog cardiovascular system; assay: Secondary action on the dog cardiovascular system, intravenous; assay type: in vivo; details: intravenous administration
[14] = tested on: sleep in mice; assay: Anti-sleep activity in mice; assay type: in vivo
[15] = tested on: rabbit aorta; assay: In vitro spasmolytic action on the rabbit aorta; details: papaverine hydrochloride = 1
Text: as §1

[16] = tested on: paw vessels of the dog; assay: In vivo spasmolytic action on paw vessels of the dog; details: papaverine hydrochloride = 1
Text: as §1

[17] = cerebral vascular sclerosis, 4 cases

Structure (SMILES): CCOC(=O)CCN1CCN(CCOC(c2ccc(F)cc2)c2ccc(F)cc2)CC1.Cl.Cl [Derivative 21, 1-(ethoxycarbonylethyl)-4[2(4,4'-difluorobenzhydryloxy)-ethyl]piperazine dihydrochloride]
- ED50 [1]: 30 mg/kg
- tolerance in chronic toxicity study [2]: perfectly well tolerated
- Potentiation of mortality with pentetrazole in mice ED50 [3]: > 100 mg/kg
- Spasmolytic activity (papaverine hydrochloride = 1) ([4]; in vitro, rat duodenum, barium chloride, relative to papaverine hydrochloride = 1): 8,5
- spasmolytic activity for the rat isolated duodenum (in words) ([4]; rat isolated duodenum): greatest
- spasmolytic activity of the papaverine type in the tests as a whole (in words) ([4]; tests as a whole): excellent spasmolytic activity
- In vitro anti-serotonin activity on the female rat uterus in oestrus [5]: 0,07
- LD50 [6]: 750 mg/kg
- selectivity ratio [7]: 0.4
- ED50 [8]: 70 mg/kg
- In vitro adrenolytic action on the Guinea-pig seminal vesicle [9]: 4
- Improvement of the psychic state ([10]; arteritis of the lower limbs, 8 cases): 4 times
- Improvement in intellectual activity [10, 17]: once
- Improvement of the psychic state [10, 17]: twice
- Improvement of motor disturbances ([10]; hemiplegia sequelae, 2 cases): 0
- Improvement of the psychic state ([10]; hemiplegia sequelae, 2 cases): once
- In vitro atropinic action on the Guinea-pig ileum [11]: > 0,01
- In vitro spasmolytic action on the rabbit isolated ear [12]: 1,5
- secondary action on the dog cardiovascular system [13]: devoid of any secondary action
- Anti-sleep activity in mice [14]: Nil
- In vitro spasmolytic action on the rabbit aorta [15]: 5
- In vivo spasmolytic action on paw vessels of the dog [16]: 30
